# Test results published in ChEMBL document CHEMBL4825697, “Optimization and SAR research at the piperazine and phenyl rings of JNJ4796 as new anti-influenza A virus agents, part 1” (Eur J Med Chem, 2021).
# Assays:
# [1] = Cytotoxicity against dog MDCK cells assessed as reduction in cell viability; assay type: cell-based, Canis lupus familiaris
# Influenza A virus = experiment: Antiviral activity against Influenza A virus (H1N1) infected in dog MDCK cells assessed as inhibition of surface glycoprotein hemagglutinin; assay type: functional, organism-based
# [2] = Selectivity index, ratio of CC50 for cytotoxicity against dog MDCK cells to IC50 for antiviral activity against Influenza A virus […] infected in dog MDCK cells; assay type: toxicity, cell-based; conditions: read-out: Selectivity Index
# [3] = Cmax in Balb/c mouse at 25 mg/kg, po administered as single dose; assay type: ADME, organism-based; parameters: route oral, dose 25 mg/kg; conditions: in vivo
# [4] = Tmax in Balb/c mouse at 25 mg/kg, po administered as single dose; assay type: ADME, organism-based; conditions: in vivo
# [5] = Half life in Balb/c mouse at 25 mg/kg, po administered as single dose; assay type: ADME, organism-based; conditions: in vivo
# [6] = AUC (0 to infinity) in Balb/c mouse at 25 mg/kg, po administered as single dose; assay type: ADME, organism-based; parameters: time infinity, route oral, dose 25 mg/kg; conditions: in vivo
# hERG (KCNH2) = hERG (KCNH2) (Homo sapiens, UniProt Q12809); experiment: Inhibition of human ERG at 10 uM
# hERG (KCNH2), sequence (Q12809 whole entry): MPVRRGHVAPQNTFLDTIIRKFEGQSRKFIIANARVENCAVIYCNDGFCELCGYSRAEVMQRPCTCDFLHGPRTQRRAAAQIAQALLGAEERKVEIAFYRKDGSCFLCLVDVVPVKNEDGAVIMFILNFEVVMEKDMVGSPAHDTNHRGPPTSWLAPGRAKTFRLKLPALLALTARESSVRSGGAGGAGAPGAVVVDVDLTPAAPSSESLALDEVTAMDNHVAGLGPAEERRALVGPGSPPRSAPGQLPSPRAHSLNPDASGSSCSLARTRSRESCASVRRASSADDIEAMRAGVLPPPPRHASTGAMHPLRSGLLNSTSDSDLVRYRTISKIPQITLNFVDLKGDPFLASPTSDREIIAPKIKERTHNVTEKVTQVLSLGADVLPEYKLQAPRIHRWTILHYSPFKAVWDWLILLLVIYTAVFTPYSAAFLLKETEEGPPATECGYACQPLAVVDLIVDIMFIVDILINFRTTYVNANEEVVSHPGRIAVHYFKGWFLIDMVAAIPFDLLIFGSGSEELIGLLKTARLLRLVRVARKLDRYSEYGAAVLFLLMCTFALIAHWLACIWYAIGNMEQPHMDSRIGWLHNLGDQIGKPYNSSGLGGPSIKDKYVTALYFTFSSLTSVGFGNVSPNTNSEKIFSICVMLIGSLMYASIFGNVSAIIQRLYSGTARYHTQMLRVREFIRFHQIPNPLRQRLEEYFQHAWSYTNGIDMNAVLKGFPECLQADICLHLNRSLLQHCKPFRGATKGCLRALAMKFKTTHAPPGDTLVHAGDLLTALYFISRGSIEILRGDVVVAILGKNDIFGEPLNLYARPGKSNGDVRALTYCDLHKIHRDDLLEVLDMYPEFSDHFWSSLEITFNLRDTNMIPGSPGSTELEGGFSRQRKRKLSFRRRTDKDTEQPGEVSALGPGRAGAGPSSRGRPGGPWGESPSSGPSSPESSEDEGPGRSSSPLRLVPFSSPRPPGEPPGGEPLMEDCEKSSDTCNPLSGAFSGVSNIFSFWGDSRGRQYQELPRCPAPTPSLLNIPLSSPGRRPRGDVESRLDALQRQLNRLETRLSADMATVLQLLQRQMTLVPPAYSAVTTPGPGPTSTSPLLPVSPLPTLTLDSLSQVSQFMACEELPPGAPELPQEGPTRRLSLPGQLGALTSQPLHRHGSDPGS
SMILES,CC50 [1] [µM],IC50 (Influenza A virus) [µM],other results
CC(=O)Nc1ccc2oc(-c3ccnc(C(=O)N4CCN(C(c5ccc(Cl)cc5)c5nnn(C)n5)CC4)c3)nc2c1 (stereo not drawn),> 50,1.71,
CC(=O)Nc1ccc2oc(-c3ccnc(C(=O)N4CCN(C(c5ccc(Br)cc5)c5nnn(C)n5)CC4)c3)nc2c1 (stereo not drawn),> 50,1.43,
CC(=O)Nc1ccc2oc(-c3ccnc(C(=O)N4CCN([C@@H](c5ccccc5)c5nnn(C)n5)CC4)c3)nc2c1,> 200,1.9,selectivity ratio [2]: > 105
CC(=O)Nc1ccc2oc(-c3ccnc(C(=O)N4CCN([C@H](c5ccccc5)c5nnn(C)n5)CC4)c3)nc2c1,144,0.04,selectivity ratio [2]: 3590
CC(=O)Nc1ccc2oc(-c3ccnc(C(=O)N4CCN(C(c5cccc(F)c5)c5nnn(C)n5)CC4)c3)nc2c1 (stereo not drawn),> 50,2.47,
CC(=O)Nc1ccc2oc(-c3ccnc(C(=O)N4CCC5(CC4)CN(C(c4ccccc4)c4nnn(C)n4)C5)c3)nc2c1 (stereo not drawn),> 50,> 50,
CC(=O)Nc1ccc2oc(-c3ccnc(C(=O)N4CCN(C(c5ccc([N+](=O)[O-])cc5)c5nnn(C)n5)CC4)c3)nc2c1 (stereo not drawn),> 50,7.41,
CC(=O)Nc1ccc2oc(-c3ccnc(C(=O)N4CCN([C@H](c5ccc(F)cc5)c5nnn(C)n5)CC4)c3)nc2c1,> 200,0.03,Cmax [3]: 866 ng/mL; Tmax [4]: 0.33 h; half-life [5]: 5.84 h; selectivity ratio [2]: > 6670; AUC(0-inf) [6]: 1910 ng·h/mL; inhibition at 10 µM (hERG (KCNH2)): 13.2%
CC(=O)Nc1ccc2oc(-c3ccnc(C(=O)N4CCN(C(c5ccc(C)cc5)c5nnn(C)n5)CC4)c3)nc2c1 (stereo not drawn),> 50,4.28,
CC(=O)Nc1ccc2oc(-c3ccnc(C(=O)N4CC5CC4CN5C(c4ccccc4)c4nnn(C)n4)c3)nc2c1 (stereo not drawn),> 50,18.5,
CC(=O)Nc1ccc2oc(-c3ccnc(C(=O)N4CCN([C@@H](c5ccc(F)cc5)c5nnn(C)n5)CC4)c3)nc2c1,> 200,5.51,selectivity ratio [2]: > 36
CC(=O)Nc1ccc2oc(-c3ccnc(C(=O)N4CCN(C(c5ccc(C(F)(F)F)cc5)c5nnn(C)n5)CC4)c3)nc2c1 (stereo not drawn),> 50,12.8,
CC(=O)Nc1ccc2oc(-c3ccnc(C(=O)N4CCN(C(c5ccc(F)cc5)c5nnn(C)n5)CC4)c3)nc2c1 (stereo not drawn),> 50,0.27,
COc1ccc(C(c2nnn(C)n2)N2CCN(C(=O)c3cc(-c4nc5cc(NC(C)=O)ccc5o4)ccn3)CC2)cc1 (stereo not drawn),> 50,12,
CC(=O)Nc1ccc2oc(-c3ccnc(C(=O)N4CC5(CCN(C(c6ccccc6)c6nnn(C)n6)CC5)C4)c3)nc2c1 (stereo not drawn),32,7.41,
CC(=O)Nc1ccc2oc(-c3ccnc(C(=O)N4CCN(C(c5nnn(C)n5)c5ccccc5F)CC4)c3)nc2c1 (stereo not drawn),> 50,7.41,
CC(=O)Nc1ccc2oc(-c3ccnc(C(=O)N4CCN(C(c5ccc(OC(F)(F)F)cc5)c5nnn(C)n5)CC4)c3)nc2c1 (stereo not drawn),> 50,3.18,
CC(=O)Nc1ccc2oc(-c3ccnc(C(=O)N4CCC5(CC4)CCN(C(c4ccccc4)c4nnn(C)n4)CC5)c3)nc2c1 (stereo not drawn),> 50,> 50,
CC(=O)Nc1ccc2oc(-c3ccnc(C(=O)N4CCN(C(c5ccccc5)c5nnn(C)n5)CC4)c3)nc2c1 (racemic),> 50,0.35,Cmax [3]: 572 ng/mL; Tmax [4]: 0.25 h; half-life [5]: 3.69 h; AUC(0-inf) [6]: 1210 ng·h/mL; inhibition at 10 µM (hERG (KCNH2)): 53.8%
CCOC(=O)C1=C[C@@H](OC(CC)CC)[C@H](NC(C)=O)[C@@H](N)C1 [OSELTAMIVIR],> 200,3.44,selectivity ratio [2]: > 58
NC(=O)c1ncn([C@@H]2O[C@H](CO)[C@@H](O)[C@H]2O)n1 [RIBAVIRIN],> 200,4.28,selectivity ratio [2]: > 46
